# Results as given in US4287201A, “Anovulatory method and chicken feed compositions” (Merck & Co., Inc., priority 1980, dated 1981).
# Read-outs that look alike come from different tables or passages of the source.
# How the values were obtained:
# laying hens [1] = assay: Anovulatory Activity (EPI): egg production of prime laying hens fed medicated diet; format: in vivo, laying hens (chicken); details: Gallus gallus, 192 h, read-out: EPI: Egg Production Index, % of control egg production for days 5 through 8
# Procedure: Anovulatory Activity--(EPI)
# Prime laying hens (7-12 months), whose egg production has been documented during the preceding 2 weeks, are fed diet containing medication at 100 ppm for 8 days. Egg production is recorded for days 5 through 8 while the birds are on test, and the Egg Production Index (EPI) is calculated as the % of control egg production for days 5 through 8 inclusive after start of oral medication at 100 ppm.
# **Egg Production Index, % of control egg production for days 5 through 8
# inclusive after start of oral medication at 100 ppm
# laying hens [2] = assay: Antigonadal Activity (ED20): ovarian weight of prime laying hens fed medicated diet for one week; format: in vivo, laying hens (chicken); details: medicated diet for seven days, based on at least 8 hens at 2 dose levels
# Procedure: Antigonadal Activity--(ED20)
# Prime laying hens (7-12 months), whose egg production has been documented during the preceding 2 weeks, are fed medicated diet for one week at various dose levels. At the conclusion of the one week test, the hens are sacrificed and their reproductive system is excised, examined and weighed. The seven day medication level producing a 20 g ovarian weight, based on at least 8 hens at 2 dose levels is calculated and recorded as ED20.
# *Seven day medication level producing a 20 g ovarian weight in laying hen
# (based on at least 8 hens at 2 dose levels)
SMILES,"response vs control in vivo at 100 ppm, 100 µg/mL (laying hens [1]; po)",ED20: seven day medication level producing a 20 g ovarian weight in laying hen (laying hens [2]),"response vs control in vivo at 100 ppm, 100 µg/mL (laying hens [1]; hens, oral medication in diet at 100 ppm for 8 days, days 5 through 8 inclusive)"
"Cc1cccc(C)c1N=C1NCCN1 [compound 1, 2-(2,6-dimethylphenylimino)imidazolidine]",18%,38 ppm,–
"Cc1c(Cl)cccc1N=C1NCCN1 [compound 2, 2-(3-chloro-2-methylphenylimino)imidazolidine]",26%,38 ppm,–
"Cc1cccc(Cl)c1N=C1NCCN1 [compound 3, 2-(6-chloro-2-methylphenylimino)imidazolidine]",16%,40 ppm,–
Cc1ccc(N=C2NCCN2)c(C)c1 [compound 4],24%,50 ppm,–
"Cc1cc(Cl)ccc1N=C1NCCN1 [compound 5, 2-(4-chloro-2-methylphenylimino)imidazolidine]",24%,53 ppm,–
"Cc1cc(C)c(N=C2NCCN2)c(C)c1 [compound 6, 2-(2,4,6-Trimethylphenylimino)imidazolidine]",31%,54 ppm,–
Cc1cc(Br)ccc1N=C1NCCN1 [compound 7],24%,56 ppm,–
"Cc1ccc(F)cc1N=C1NCCN1 [compound 8, 2-(5-fluoro-2-methylphenylimino)imidazolidine]",24%,67 ppm,–
Cc1ccccc1N=C1NCCN1 [compound 9],8%,69 ppm,–
CCc1ccccc1N=C1NCCN1 [compound 10],31%,83 ppm,–
CCc1cccc(CC)c1N=C1NCCN1 [compound 11],31%,151 ppm,–
Cc1cccc(N=C2NCCN2)c1C [compound 12],86%,181 ppm,–
"Clc1ccccc1N=C1NCCN1 [compound 13, 2-(2-chlorophenylimino)imidazolidine]",31%,217 ppm,–
Cc1ccc(C)c(N=C2NCCN2)c1 [compound 14],70%,250 ppm,–
Clc1cccc(Cl)c1N=C1NCCN1 [compound 15],–,400 ppm,70%
